Results reported in the NIST ThermoML archive (doi:10.1016/j.fluid.2018.10.006).
Numbers after ± are expanded uncertainties.

Details: Fluid (supercritical or subcritical phases), Coaxial cylinder method

CCCCCC [hexane]
Details	thermal conductivity [W/m/K]
508.92 K, 3088 kPa	0.1061 ± 0.0049
508.92 K, 3089 kPa	0.1087 ± 0.005
508.92 K, 3090 kPa	0.1096 ± 0.0051
508.92 K, 3091 kPa	0.11 ± 0.0051
508.92 K, 3092 kPa	0.1093 ± 0.005
508.92 K, 3093 kPa	0.1071 ± 0.0049
508.92 K, 3094 kPa	0.1049 ± 0.0048
508.92 K, 3095 kPa	0.1028 ± 0.0047
508.92 K, 3096 kPa	0.101 ± 0.0047
508.92 K, 3097 kPa	0.09872 ± 0.0046
508.92 K, 3098 kPa	0.0967 ± 0.0044
508.92 K, 3099 kPa	0.0947 ± 0.0044
508.92 K, 3100 kPa	0.09356 ± 0.0043
508.92 K, 3101 kPa	0.09223 ± 0.0043
508.92 K, 3102 kPa	0.09134 ± 0.0042
508.92 K, 3103 kPa	0.09045 ± 0.0042
508.92 K, 3104 kPa	0.08916 ± 0.0041
508.92 K, 3105 kPa	0.08837 ± 0.0041
508.92 K, 3106 kPa	0.08751 ± 0.004
508.92 K, 3107 kPa	0.08708 ± 0.004
508.92 K, 3108 kPa	0.08666 ± 0.004
508.92 K, 3109 kPa	0.08604 ± 0.004
508.92 K, 3110 kPa	0.08542 ± 0.0039
508.92 K, 3111 kPa	0.08502 ± 0.0039
508.92 K, 3112 kPa	0.08462 ± 0.0039
508.92 K, 3113 kPa	0.08398 ± 0.0039
508.92 K, 3114 kPa	0.08318 ± 0.0038
508.92 K, 3115 kPa	0.08318 ± 0.0038
508.92 K, 3120 kPa	0.08124 ± 0.0038
508.92 K, 3125 kPa	0.07976 ± 0.0037
508.92 K, 3130 kPa	0.07868 ± 0.0037
508.92 K, 3135 kPa	0.07761 ± 0.0037
508.92 K, 3140 kPa	0.07664 ± 0.0036
508.92 K, 3145 kPa	0.07595 ± 0.0036
508.92 K, 3150 kPa	0.07561 ± 0.0035
508.92 K, 3155 kPa	0.07461 ± 0.0035
508.92 K, 3159 kPa	0.07461 ± 0.0035
508.92 K, 3160 kPa	0.07429 ± 0.0035
508.92 K, 3165 kPa	0.07396 ± 0.0034
508.92 K, 3170 kPa	0.07364 ± 0.0034
508.92 K, 3175 kPa	0.07309 ± 0.0034
508.92 K, 3180 kPa	0.07309 ± 0.0034
508.92 K, 3185 kPa	0.07278 ± 0.0034
508.92 K, 3190 kPa	0.07248 ± 0.0034
508.92 K, 3195 kPa	0.07217 ± 0.0034
508.92 K, 3200 kPa	0.07227 ± 0.0034
508.92 K, 3205 kPa	0.07189 ± 0.0034
508.92 K, 3215 kPa	0.07157 ± 0.0033
508.92 K, 3220 kPa	0.07128 ± 0.0033
508.92 K, 3225 kPa	0.07128 ± 0.0033
508.92 K, 3230 kPa	0.07107 ± 0.0033
508.92 K, 3235 kPa	0.07101 ± 0.0033
508.92 K, 3240 kPa	0.07092 ± 0.0033
508.92 K, 3245 kPa	0.07081 ± 0.0033
508.92 K, 3250 kPa	0.07098 ± 0.0033
508.92 K, 3255 kPa	0.07098 ± 0.0033
508.92 K, 3260 kPa	0.07098 ± 0.0033
508.92 K, 3265 kPa	0.07069 ± 0.0033
508.92 K, 3270 kPa	0.07069 ± 0.0033
508.92 K, 3275 kPa	0.07069 ± 0.0033
508.92 K, 3280 kPa	0.07069 ± 0.0033
508.92 K, 3285 kPa	0.07069 ± 0.0033
508.92 K, 3290 kPa	0.0704 ± 0.0033
508.92 K, 3295 kPa	0.0704 ± 0.0033
508.92 K, 3300 kPa	0.0704 ± 0.0033
508.92 K, 3310 kPa	0.0704 ± 0.0033
508.92 K, 3320 kPa	0.07069 ± 0.0033
508.92 K, 3330 kPa	0.07069 ± 0.0033
508.92 K, 3340 kPa	0.07069 ± 0.0033
508.92 K, 3350 kPa	0.0707 ± 0.0033
508.92 K, 3355 kPa	0.07041 ± 0.0033
508.92 K, 3360 kPa	0.07041 ± 0.0033
508.92 K, 3365 kPa	0.07041 ± 0.0033
508.92 K, 3370 kPa	0.07041 ± 0.0033
508.92 K, 3375 kPa	0.07041 ± 0.0033
508.92 K, 3380 kPa	0.07041 ± 0.0033
508.92 K, 3385 kPa	0.07041 ± 0.0033
508.92 K, 3390 kPa	0.07013 ± 0.0033
508.92 K, 3395 kPa	0.07013 ± 0.0033
508.92 K, 3500 kPa	0.07013 ± 0.0033
508.92 K, 3535 kPa	0.07013 ± 0.0033
508.92 K, 3540 kPa	0.07013 ± 0.0033
508.92 K, 3545 kPa	0.06984 ± 0.0033
508.92 K, 3550 kPa	0.07041 ± 0.0033
508.92 K, 3555 kPa	0.07041 ± 0.0033
508.92 K, 3560 kPa	0.07041 ± 0.0033
508.92 K, 3565 kPa	0.07041 ± 0.0033
508.92 K, 3570 kPa	0.07041 ± 0.0033
508.92 K, 3605 kPa	0.06984 ± 0.0033
508.92 K, 3670 kPa	0.06984 ± 0.0033
508.92 K, 3690 kPa	0.06984 ± 0.0033
508.92 K, 3700 kPa	0.0707 ± 0.0033
508.92 K, 3900 kPa	0.0707 ± 0.0033
508.92 K, 4000 kPa	0.0707 ± 0.0033
508.92 K, 4300 kPa	0.07129 ± 0.0033
508.92 K, 4400 kPa	0.07159 ± 0.0034
508.92 K, 4500 kPa	0.07188 ± 0.0034
508.92 K, 4600 kPa	0.07219 ± 0.0034
508.92 K, 4700 kPa	0.07219 ± 0.0034
508.92 K, 4800 kPa	0.0725 ± 0.0034
508.92 K, 4900 kPa	0.0725 ± 0.0034
508.92 K, 5000 kPa	0.0728 ± 0.0034
508.92 K, 5100 kPa	0.0728 ± 0.0034
508.92 K, 5200 kPa	0.07342 ± 0.0034
508.92 K, 5300 kPa	0.07342 ± 0.0034
508.92 K, 5400 kPa	0.07342 ± 0.0034
508.92 K, 5500 kPa	0.07373 ± 0.0034
508.92 K, 5600 kPa	0.07437 ± 0.0035
508.92 K, 5800 kPa	0.07437 ± 0.0035
508.92 K, 6000 kPa	0.07437 ± 0.0035
508.92 K, 6100 kPa	0.07437 ± 0.0035
508.92 K, 6200 kPa	0.07469 ± 0.0035
508.92 K, 6400 kPa	0.07501 ± 0.0035
508.92 K, 6500 kPa	0.07534 ± 0.0035
508.92 K, 7000 kPa	0.07634 ± 0.0035
508.92 K, 7500 kPa	0.07702 ± 0.0036
508.92 K, 8000 kPa	0.07771 ± 0.0036
508.92 K, 8500 kPa	0.07771 ± 0.0036
508.92 K, 9000 kPa	0.07828 ± 0.0036
508.92 K, 9500 kPa	0.07915 ± 0.0037
508.92 K, 10000 kPa	0.07951 ± 0.0037
509.85 K, 2686 kPa	0.04642 ± 0.0023
509.85 K, 2700 kPa	0.04668 ± 0.0023
509.85 K, 2710 kPa	0.04655 ± 0.0023
509.85 K, 2720 kPa	0.04706 ± 0.0023
509.85 K, 2730 kPa	0.0472 ± 0.0023
509.85 K, 2740 kPa	0.04733 ± 0.0024
509.85 K, 2750 kPa	0.04759 ± 0.0024
509.85 K, 2760 kPa	0.04786 ± 0.0024
509.85 K, 2770 kPa	0.04813 ± 0.0024
509.85 K, 2780 kPa	0.04827 ± 0.0024
509.85 K, 2790 kPa	0.04841 ± 0.0024
509.85 K, 2800 kPa	0.04854 ± 0.0024
509.85 K, 2805 kPa	0.04868 ± 0.0024
509.85 K, 2810 kPa	0.04882 ± 0.0024
509.85 K, 2815 kPa	0.0491 ± 0.0024
509.85 K, 2820 kPa	0.04925 ± 0.0024
509.85 K, 2825 kPa	0.04939 ± 0.0024
509.85 K, 2830 kPa	0.04953 ± 0.0024
509.85 K, 2835 kPa	0.04968 ± 0.0024
509.85 K, 2840 kPa	0.04957 ± 0.0024
509.85 K, 2845 kPa	0.04972 ± 0.0024
509.85 K, 2850 kPa	0.04986 ± 0.0024
509.85 K, 2855 kPa	0.05001 ± 0.0025
509.85 K, 2860 kPa	0.05016 ± 0.0025
509.85 K, 2865 kPa	0.05031 ± 0.0025
509.85 K, 2870 kPa	0.05046 ± 0.0025
509.85 K, 2875 kPa	0.05061 ± 0.0025
509.85 K, 2880 kPa	0.05077 ± 0.0025
509.85 K, 2885 kPa	0.05123 ± 0.0025
509.85 K, 2890 kPa	0.05123 ± 0.0025
509.85 K, 2895 kPa	0.05139 ± 0.0025
509.85 K, 2900 kPa	0.05154 ± 0.0025
509.85 K, 2905 kPa	0.0517 ± 0.0025
509.85 K, 2910 kPa	0.05186 ± 0.0025
509.85 K, 2915 kPa	0.05218 ± 0.0026
509.85 K, 2920 kPa	0.05243 ± 0.0026
509.85 K, 2925 kPa	0.05259 ± 0.0026
509.85 K, 2930 kPa	0.05293 ± 0.0026
509.85 K, 2935 kPa	0.05309 ± 0.0026
509.85 K, 2940 kPa	0.05326 ± 0.0026
509.85 K, 2945 kPa	0.05344 ± 0.0026
509.85 K, 2950 kPa	0.05378 ± 0.0026
509.85 K, 2955 kPa	0.05395 ± 0.0026
509.85 K, 2960 kPa	0.05431 ± 0.0026
